Measurements as given in paper PMC8570331, “8-Hydroxyquinoline-Amino Acid Hybrids and Their Half-Sandwich Rh and Ru Complexes: Synthesis, Anticancer Activities, Solution Chemistry and Interaction with Biomolecules” (International Journal of Molecular Sciences, 2021).
Where two headings read alike, the source gives them in different places.

What was measured:
[1] = Proton dissociation constants of the ligands (pH-potentiometry, UV-vis, 1H NMR titrations); format: physicochemical; settings: for pKa: aqueous solution, I = 0.2 M KNO3, T = 25.0 °C
Description: pH-potentiometric measurements were carried out at 25.0 ± 0.1 °C in water in the pH range between 2.0 and 11.5 and at a constant ionic strength of 0.2 M KNO3. The titrations were performed in a carbonate-free KOH solution (0.20 M). The exact concentrations of HNO3 and KOH solutions were determined by pH-potentiometric titrations. An Orion 710A pH-meter equipped with a Metrohm combined electrode (type 6.0234.100) and a Metrohm 665 Dosimat burette were used for the pH-potentiometric measurements. […] The average water ionization constant, pKw, was determined as 13.76 ± 0.01, which is in good agreement with the literature data. The initial volume of the samples was 5.0 mL. The ligand concentration was 1.75 or 2.0 mM. Samples were degassed by bubbling purified argon through them for about 10 min prior to the measurements, and the inert gas was also passed over the solutions during the titrations. The computer program Hyperquad2013 [46] was utilized to establish the stoichiometry of the species and to calculate the equilibrium constants, similarly to that performed in our previous works.
Agilent Cary 8454 diode array spectrophotometer was utilized to obtain UV-vis spectra in the wavelength range 190–1100 nm. The path length (ℓ) was 1 cm in most cases (the actual ℓ is always indicated in the legends of the figures). The concentrations of the ligands and complexes were between 88 and 240 µM. For HSA and ct-DNA containing samples, complex concentrations were 100 µM, and 0.5 and 2 equiv. biomolecule were added for kinetic studies, respectively. Individual samples contained 0–20 µM HSA and 0–1.75 mM (nucleotide) ct-DNA. Spectra were always background corrected. The computer program HypSpec was used to obtain stability constants.
(§1) Bruker Avance III HD Ascend 500 Plus instrument (Billerica, MA, USA) was used for NMR studies. ^1H NMR spectroscopic measurements were carried out with a WATERGATE water suppression pulse scheme in the presence of 10% (v/v) D2O in most cases. DSS internal standard was added to samples to obtain reference peaks. Complex concentrations were 0.5 mM or 1.0 mM, and 0.5 equiv. HSA was added. ^1H NMR titrations were carried out in the presence of 0.2 M KNO3. With the FHA model peptide, the measurements were performed at 0.5 or 1 mM metal complex concentrations, and 1:1, 1:2 or 2:1 peptide-to-metal complex ratios were applied. The computer program HypSpec was used to obtain stability constants.

[2] = Distribution coefficients, shake-flask n-octanol/buffered aqueous solution; format: physicochemical; settings: pH 7.4, n-octanol/buffer, in 100 mM KCl, read-out: logD7.4
Description: It is worth noting that these amino acid hybrids have excellent water solubility due to their zwitterionic form, unlike most 8-hydroxyquinolines.
Distribution coefficients of the ligands as well as of the complexes were determined at pH = 7.4 using the traditional shake-flask method in n-octanol/buffered aqueous solution (20 mM phosphate) at different chloride ion concentrations (4, 24 and 100 mM) using UV-vis spectrophotometry for the analysis. The measurement and data evaluation were performed as described in our former work.

[3] = Solution stability of the complexes by 1H NMR; format: physicochemical; settings: pH 0.7, 24 h equilibration, 500 μM
Description: as §1

[4] = test system: human serum albumin (HSA); assay: CD spectroscopy of HSA secondary structure; format: binding; settings: up to 5 equivalents complex, 50% without complex
Description: Possible changes in the secondary structure of HSA due to its interaction with the RhCp* and RuCym complexes of HQCl-D-hPro were investigated by CD spectroscopy. HSA is mostly composed of α-helices, and its CD spectrum can be characterized by two negative bands (208 and 222 nm). […] Only at higher complex excess (>10) we observed somewhat larger changes; however, such protein-to-complex ratios are far from the biologically relevant conditions.
CD spectroscopy experiments were performed by a JASCO-J-1500 (ABL&E–JASCO Hungary Ltd., Budapest, Hungary) spectrometer using 0.2 or 1 cm optical path length in the wavelength range from 200 to 250 or to 350 nm. The scanning speed was 200 nm/min. The analytical concentration of HSA and ct-DNA was constant (2 and 98 µM, respectively), and the concentration of the complexes was varied (0–26 and 0–47 µM, respectively).

| Compound | pKa ([1]; 1H NMR, read-out: pKa (NhPro/ProH+)) | pKa ([1]; 1H NMR, read-out: pKa (NqH+)) | pKa ([1]; 1H NMR, read-out: pKa (OH)) | pKa ([1]; UV-vis, read-out: pKa (NhPro/ProH+)) | pKa ([1]; UV-vis, read-out: pKa (NqH+)) | pKa ([1]; UV-vis, read-out: pKa (OH)) | pKa ([1]; pH-potentiometry, read-out: pKa (NhPro/ProH+)) | pKa ([1]; pH-potentiometry, read-out: pKa (NqH+)) | pKa ([1]; pH-potentiometry, read-out: pKa (OH)) | fraction of the negatively charged species (O−, COO−, NhPro/ProH+) ([1]; at pH 7.4) | logD [2] | fraction of complex dissociated [3] | α-helix content of HSA in the presence of the complex [4] |
| --- | --- | --- | --- | --- | --- | --- | --- | --- | --- | --- | --- | --- | --- |
| O=C(O)[C@H]1CCCCN1Cc1cc(Cl)c2cccnc2c1O [HQCl-D-hPro, (R)-5-chloro-7-((homoproline-1-yl)methyl)8-hydroxyquinoline] | > 11 | 2.52 ± 0.03 | 7.54 ± 0.02 | 11.43 ± 0.01 | 2.43 ± 0.01 | 7.49 ± 0.04 | > 11 | 2.42 ± 0.04 | 7.52 ± 0.06 | 42% | 0.36 |  |  |
| Cc1c(C)c(C)[c-](C)c1C.O=C(O)[C@H]1CCCC[NH+]1Cc1cc(Cl)c2cccnc2c1[O-].[Cl-].[Cl-].[Rh+3] [RhCp*–HQCl-D-hPro, [RhCp*(HQCl-D-hPro)Cl]Cl] |  |  |  |  |  |  |  |  |  |  |  | ~ 3% | 47% |
| Cc1ccc(C(C)C)cc1.O=C(O)[C@H]1CCCC[NH+]1Cc1cc(Cl)c2cccnc2c1[O-].[Cl-].[Cl-].[Ru+2] [RuCym–HQCl-D-hPro, [RuCym(HQCl-D-hPro)Cl]Cl] |  |  |  |  |  |  |  |  |  |  |  | ~ 2% | 46% |
